From patent publication US20200407398A1, “Short Proline-Rich Lipopeptide Potentiates Minocycline and Rifampicin Against Multidrug-and Extensively Drug-Resistant Pseudomonas Aeruginosa” (priority 2018, published 2020) come the findings set out here.

Peptide text beside a SMILES is read from it. * marks the point of attachment. Palmitoyl = CCCCCCCCCCCCCCCC(=O)*

The subject of series [1] is Gram-negative bacteria E. coli. Kind of series: Microbroth dilution MIC, range over strains. It counts as cell-based. The following applies: against the E. coli strains of the panel. The procedure: (§1) The synthesized SPRLPs were evaluated for their antibacterial potency against a panel of Gram-positive and Gram-negative bacteria (Tables 2 & 3). Some of the included pathogens were collected from patients visiting or admitted to participating Canadian hospitals through the CAN-ICU (27) and CANWARD (28) national surveillance studies. Antibacterial activity was assessed using minimum inhibitory concentration (MIC) against various clinical pathogens.
(§2) Microbroth dilution susceptibility test following the Clinical and Laboratory Standards Institute (CLSI) guidelines (32) was performed to assess the in vitro antibacterial activity of SPRLPs. Overnight grown bacterial cultures were diluted in saline to achieve a 0.5 McFarland turbidity, followed by 1:50 dilution in Mueller-Hinton broth (MHB) for inoculation to a final concentration of 5×10^5 colony forming units/mL. The assay was done on a 96-well plate to which the agents of interest were 2-fold serially diluted in MHB and incubated with equal volumes of inoculum at 37° C. for 18 hours. MIC was determined as the lowest concentration to inhibit visible bacterial growth in form of turbidity, which was confirmed using EMax Plus microplate reader (Molecular Devices, USA) at a wavelength of 590 nm. The well containing MHB broth with or without bacterial cells was used as positive or negative control, respectively.

A further series has as its system pig erythrocytes. It counts as cell-based. The procedure, abridged: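 Washed pig erythrocytes in PBS were mixed with 2-fold serial dilutions of peptide and incubated for 1 h at 37° C. Released hemoglobin in the supernatant was read at 570 nm, with PBS and 0.1% Triton X-100 as controls. MHC was the minimum concentration giving 5% hemolysis.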
The subject of series [2] is wild-type and MDR/XDR P. aeruginosa clinical isolates. The following applies: checkerboard assay; P. aeruginosa. Here is the method:
We evaluated the activity of SPRLPs in combination with fifteen clinically-used antibiotics against P. aeruginosa. Antibiotics tested included fluoroquinolones (moxifloxacin, ciprofloxacin and levofloxacin), aminoglycosides (gentamicin, tobramycin and amikacin), cephalosporins (ceftazidime and cefotaxime), carbapenems (meropenem and doripenem), aztreonam, rifampicin, minocycline, colistin and fosfomycin. The SPRLPs were screened initially at a fixed concentration of 8 μg/mL (5 μM) in combination with antibiotics against wild-type P. aeruginosa PAO1. We assessed potentiation by at least a four-fold absolute MIC reduction of the antibiotic, after which synergism was further validated by a conventional checkerboard assay. A fractional inhibitory concentration (FIC) index of ≤0.5, 0.5<x≤4 or >4 was interpreted as synergistic, indifferent or antagonistic interaction, respectively (31). FIC index was obtained by adding the FIC values of the antibiotic and the SPRLP adjuvant. FIC of antibiotics was calculated by dividing the MIC of the antibiotic in the presence of the adjuvant by the MIC of the antibiotic alone. Similarly, the FIC of adjuvant was calculated via dividing the MIC of the adjuvant in the presence of the antibiotic by the MIC of the adjuvant alone.
Isolates used in this study were either obtained from the American Type Culture Collection (ATCC), the Canadian National Intensive Care Unit (CAN-ICU) surveillance study (27) or the Canadian Ward Surveillance (CANWARD) study (28). Clinical isolates belonging to the CAN-ICU and CANWARD studies were recovered from patients suffering a presumed infectious disease entering or admitted in a participating medical center across Canada during the time of study. MDR P. aeruginosa strains in this study refer to those that are resistant to aminoglycosides, fluoroquinolones, cephalosporins, and carbapenems while XDR strains are those that are resistant to aminoglycosides, fluoroquinolones, cephalosporins, carbapenems, aztreonam and penicillin+β-lactamase inhibitor combination (39, 40).
as §2
The assay was performed on a 96-well plate, to which the agents of interest was 2-fold serially diluted in working MHB. Prior to serial dilution, SPRLP was added to the working MHB media so that a fixed final concentration of 8 μg/mL (5 μM) SPRLP per well was achieved. To ensure that the assay was working, the MIC determination test of the studied antibiotic (without SPRLP) was included on the same plate. Similar MIC results between the assay comparator and an independent MIC determination test (on a different plate) ensured validity of the synergy test. Overnight grown bacterial cultures were diluted in saline to 0.5 McFarland turbidity, followed by 1:50 dilution in MHB (without SPRLP) and inoculation into each well to a final concentration of approximately 5×10^5 colony forming units/mL. Wells containing only MHB (without SPRLP) with or without bacterial cells were used as positive or negative control, respectively.

The test system of a further series is E. coli ATCC 25922. Format: cell-based. An outline of the steps: (§3)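 CLSI microbroth dilution; MHB; inoculum 5×10^5 CFU/mL from 0.5 McFarland suspension diluted 1:50; 2-fold compound series; 37° C., 18 h; MIC = lowest concentration without visible growth, checked at 590 nm.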
The test system of the next series is P. aeruginosa ATCC 27853. It counts as cell-based. The procedure, abridged:
as §3

In a further series the test system is E. faecium ATCC 27270. It counts as cell-based. An outline of the steps: as §3
Series [3] relates to P. aeruginosa CAN-ICU 62308 (gentamicin-resistant). Format: cell-based. The procedure, abridged: as §3
The next series has as its system E. faecalis ATCC 29212. Format: cell-based. An outline of the steps:
as §3

The test system of series [4] is A. baumannii CAN-ICU 63169. Format: cell-based. An outline of the steps: as §3
Series [5] has as its system E. coli CAN-ICU 61714 (gentamicin-resistant). Format: cell-based. The procedure, abridged: as §3
Another series deals with K. pneumoniae ATCC 13883. It counts as cell-based. An outline of the steps:
as §3

Series [6] concerns P. aeruginosa CANWARD-2011 96846 (gentamicin-, tobramycin-resistant). It counts as cell-based. The procedure, abridged:
as §3

Series [7] deals with S. maltophilia CAN-ICU 62584. Format: cell-based. The procedure, abridged:
as §3

In series [8] the test system is methicillin-susceptible Staphylococcus epidermidis CANWARD-2008 81388. Format: cell-based. The following applies: methicillin-susceptible CANWARD-2008 81388. The procedure, abridged: as §3
Another series deals with S. aureus ATCC 29213. Format: cell-based. An outline of the steps: as §3
Series [9] relates to E. coli CAN-ICU 63074 (amikacin-intermediate resistant). Format: cell-based. An outline of the steps:
as §3

Series [10] relates to methicillin-resistant S. aureus ATCC 33592. It counts as cell-based. The procedure, abridged: as §3
For series [11], the system named is P. aeruginosa wild-type PAO1. It counts as cell-based. An outline of the steps: as §3
The subject of series [12] is methicillin-resistant S. epidermidis CAN-ICU 61589 (ceftazidime-resistant). It counts as cell-based. The settings on record: methicillin-resistant CAN-ICU 61589 (ceftazidime-resistant). An outline of the steps:
as §3

Series [13] has as its system E. coli CANWARD-2011 97615 (gentamicin-, tobramycin-, ciprofloxacin-resistant) aac(3′)iia. Format: cell-based. An outline of the steps: as §3
In the next series the test system is Gram-positive bacteria. Kind of series: Microbroth dilution MIC, range over panel. It counts as cell-based. The following applies: against Gram-positive bacteria of the panel. The procedure:
as §1, §2

Series [14] relates to human liver carcinoma HepG2 cells. It counts as cell-based. The following applies: read-out: IC50, inhibition of proliferation. The procedure: The CyQuant Direct cell proliferation assay kit (ThermoFisher, Canada) was used to assess the effect of C12-PRP on cell proliferation according to the manufacturer's protocol. Briefly, human embryonic kidney cells (HEK-293) and HepG2 cells were grown in Dulbecco's Modified Eagle's Medium supplemented with 10% fetal bovine serum. The cells were dispersed into 96-well plates (8000 cells/well in 100 μl ). Wells with media but no cells were used as blanks. After 24 hours, varying concentrations of C12-PRP, colistin and Adriamycin® were added to the wells containing cells but also the blanks. After incubation of the cells with the compounds for 48 hours, the CyQuant Direct detection reagent was added to the wells. Plates were incubated at 37° C. for 1 hour and the fluorescence (Excitation 480nm/Emission 535 nm) was read using a SpectraMax M2e (Molecular Devices, USA). As a positive control, CyQuant Direct detection reagent was added to a plate with untreated cells, incubated for 1 hour followed by fluorescence reading. The number of cells in each well was determined by detaching the cells by trypsin followed by counting on a CoulterZM counter to ensure an approximate equal number of cells per well.

With `CCCCCCCCCCCCCCCC(=O)N1CCC[C@H]1C(=O)N[C@@H](CCCNC(=N)N)C(=O)N1CCC[C@H]1C(=O)N[C@@H](CCCNC(=N)N)C(=O)N1CCC[C@H]1C(=O)N[C@@H](CCCNC(=N)N)C(=O)N1CCC[C@H]1C(N)=O` [Compound C16-PRP, CH3(CH2)14CO-PRPRPRP-NH2] (Palmitoyl-PRPRPRP-NH2), the values for the MIC range (in series [1]; with Gram-positive bacteria) were 8 to 16 µg/mL and 4 to 16 µg/mL, respectively. Also, the “MHC (minimum concentration that resulted in 5% red blood cell hemolysis)” value in the series with pig erythrocytes worked out at 16 µg/mL. Further, the “interaction with minocycline (in words)” value in series [2] is on record as “indifferent interaction”. Moreover, in [2], the “interaction with rifampicin (in words)” value is “indifferent interaction”. The MIC in the series with E. coli ATCC 25922 worked out at 16 µg/mL; with P. aeruginosa ATCC 27853, 32 µg/mL; in the series with E. faecium ATCC 27270, 8 µg/mL; in series [3] it was 32 µg/mL; in the series with E. faecalis ATCC 29212, 16 µg/mL; in [4] it was 16 µg/mL. The MIC in series [5] turned out to be 8 µg/mL; with K. pneumoniae ATCC 13883 it was 64 µg/mL; in series [6], 64 µg/mL; in series [7] it was 64 µg/mL; in [8], 4 µg/mL; in the series with S. aureus ATCC 29213 it was 8 µg/mL. Also, the MIC was found to be 8 µg/mL in [9]; 16 µg/mL in series [10]; 32 µg/mL in series [11]; 8 µg/mL in [12]; 8 µg/mL in series [13].
For colistin, in series [14], the IC50 amounted to 1500 nM.
